Patent publication US20040033517A1, “Compositions and methods relating to endothelial cell signaling using the protease activated receptor (PAR1)” (priority 2002, published 2004)
Like-named read-outs stand apart in the source and are kept apart here. Ends that are not written are not given here.

What was measured:
[1] = systemically and locally induced sepsis models; Zisman 1997, Bone-Larson 2000; cited from earlier work
[2] = test system: human umbilical vein endothelial cells HUVEC-C; type: cell-based
Excerpt: Microarray Analysis. […] Total RNA was isolated followed by reverse transcription. Purified double stranded cDNA was in vitro transcribed in the presence of biotinylated dUTP and dCTP, fragmented cRNA was hybridized to the HG-U95Av2 array (Affymetrix, Santa Clara, Calif.), followed by staining with streptavidin-phycoerythrin. Arrays were scanned and analyzed using GeneChip3.1 software. […] An average fold-induction for the three independent experiments was obtained by calculating the means of the logarithm of the individual fold-increases for each agonist.

[3] = test system: primary HUVEC; experiment: TaqMan real-time RT-PCR of gene induction in primary HUVEC; type: cell-based, human; details: primary endothelial cells, quantitative PCR, FIG. 3A
Description: TaqMan Real Time PCR. For TaqMan (Applied Biosystems) real-time RT-PCR 4 μg total cellular RNA from stimulated primary HUVEC was reverse transcribed followed by RNAse treatment using the Superscript Kit (Invitrogen). TaqMan probes were custom designed for genes of interests. All samples were normalized with human GAPDH probes and primers obtained from Applied Biosystems.

[4] = HUVEC-C, 90 min, genes represented in FIG. 2 A-C
[5] = HUVEC-C, 90 min, higher variability, PAR1 enhanced (<1.3 fold with PAR2 agonist)
[6] = HUVEC-C, 90 min, higher variability, PAR2 enhanced (<1.3 fold with PAR1 agonist)
[7] = HUVEC-C, 90 min, higher variability, genes not induced by APC (<1.3 fold with APC)

Substance: MCP-1: monocyte chemoattractant protein-1, chemokine administered in cited sepsis models
- Effect of administration in sepsis models [1]: protective

Substance: TFLLRNPNDK [PAR1]
- Average fold induction, AKAP12 U81607 A-KINASE ANCHOR PROTEIN 12, GRAVIN [2]: 1.39 fold
- Average fold induction, BCL2A1 U27467 BCL2 RELATED PROTEIN A1, BFL-1 [2]: 2.04 fold
- Average fold induction, BIRC3 U45878 HUMAN INHIBITOR OF APOPTOSIS PROTEIN (IAP) 1 [2]: 2.39 fold
- Average fold induction, DUSP1 X68277 DUAL-SPECIFICITY PHOSPHATASE 1 [2]: 2.05 fold
- Average fold induction, DUSP5 U15932 DUAL-SPECIFICITY PHOSPHATASE 5 [2]: 2.93 fold
- Average fold induction, GADD45B AF078077 GROWTH ARREST- AND DNA DAMAGE-INDUCIBLE GENE GADD45, BETA [2]: 1.26 fold
- Average fold induction, IER3 S81914 IMMEDIATE-EARLY RESPONSE 3 [2]: 1.30 fold
- Average fold induction, NAB1 AF045451 NGFIA-BINDING PROTEIN [2]: 1.49 fold
- Average fold induction, NFKBIA M69043 NUCLEAR FACTOR OF KAPPA LIGHT CHAIN GENE ENHANCER IN B CELLS INHIBITOR, ALPHA [2]: 1.38 fold
- Average fold induction, TNFAIP3 M59465 TUMOR NECROSIS FACTOR-ALPHA-INDUCED PROTEIN 3, A20 [2]: 1.39 fold
- Average fold induction, ZFP36 M92843 ZINC FINGER PROTEIN 36, TRISTETRAPROLIN (TTP) [2]: 1.98 fold
- Average Induction, A1288757 qm11h01.x1 Homo sapiens cDNA [2, 4]: 1.8 fold
- Average Induction, A1670788 tz10c02.x1 Homo sapiens cDNA [2, 4]: 1.5 fold
- Average Induction, A1985272 ws06b05.x1 Homo sapiens cDNA [2, 4]: 1.3 fold
- Average Induction, A8022718 Homo sapiens m.RNA for DEPP (decidual protein induced by progesterone) [2, 4]: 1.3 fold
- Average Induction, AB004066 Homo sapiens mRNA for DEC1 [2, 4]: 1.5 fold
- Average Induction, AB014569 Homo sapiens mRNA for K1AA0669 protein [2, 4]: 1.3 fold
- Average Induction, AF017786 Homo sapiens phosphatidic acid phosphohydrolase homolog (Dri42) [2, 4]: 1.6 fold
- Average Induction, AF022375 Homo sapiens vascular endothelial growth factor mRNA [2, 4]: 1.5 fold
- Average Induction, AF039843 Homo sapiens Sprouty 2 (SPRY2) mRNA [2, 4]: 1.6 fold
- Average Induction, AF045451 Homo sapiens transcriptional regulatory protein p54 [2, 4]: 1.5 fold
- Average Induction, AF050110 Homo sapiens TGFb inducible early protein and early growth response protein alpha genes [2, 4]: 1.7 fold
- Average Induction, AF054182 Homo sapiens mitochondrial processing peptidase beta-subunit mRNA [2, 4]: 1.8 fold
- Average Induction, AF068197 Homo sapiens BCE-1 mRNA [2, 4]: 1.5 fold
- Average Induction, AF078077 Homo sapiens growth arrest and DNA-damage-inducible protein GADD45beta [2, 4]: 1.3 fold
- Average Induction, AJ005821 Homo sapiens mRNA for X-like 1 protein [2, 4]: 2.4 fold
- Average Induction, AL023584 Human DNA sequence from clone 67K17 on chromosome 6q24.1-24.3. [2, 4]: 1.8 fold
- Average Induction, AL031432 Human DNA sequence from clone 465N24 on chromosome 1p35.1-36.13. [2, 4]: 1.9 fold
- Average Induction, AL050078 Homo sapiens mRNA; cDNA DKFZp566G0746 [2, 4]: 1.6 fold
- Average Induction, AL096858 Novel human gene mapping to chomosome 1 [2, 4]: 1.3 fold
- Average Induction, Cluster Incl M22489 Human bone morphogenetic protein 2A (BMP-2A) [2, 4]: 2.4 fold
- Average Induction, Cluster Incl U12767 Human mitogen induced nuclear orphan receptor (MINOR) [2, 4]: 2.4 fold
- Average Induction, D15050 Human mRNA for transcription factor AREB6 [2, 4]: 2.1 fold
- Average Induction, D50917 Human mRNA for KIAA0127 gene [2, 4]: 1.4 fold
- Average Induction, D78579 Homo sapiens mRNA for neuron derived orphan receptor [2, 4]: 2.6 fold
- Average Induction, D86181 Homo sapiens DNA for galactocerebrosidase [2, 4]: 1.9 fold
- Average Induction, Guanine Nucleotide Exchange Factor 2 [2, 4]: 1.4 fold
- Average Induction, J02931 Human placental tissue factor (two forms) mRNA [2, 4]: 3.0 fold
- Average Induction, J04076 Human early growth response 2 protein (EGR2) mRNA [2, 4]: 2.0 fold
- Average Induction, J04111 Human c-jun proto oncogene (JUN) [2, 4]: 1.7 fold
- Average Induction, L05072 Homo sapiens interferon regulatory factor 1 gene [2, 4]: 1.9 fold
- Average Induction, L19871 Human activating transcription factor 3 (ATF3) [2, 4]: 2.5 fold
- Average Induction, L43821 Homo sapiens enhancer of filamentation (HEF1) mRNA [2, 4]: 1.4 fold
- Average Induction, M22489/FEATURE Human bone morphogenetic protein 2A (BMP-2A) [2, 4]: 2.3 fold
- Average Induction, M26683 Human interferon gamma treatment inducible mRNA [2, 4]: 1.6 fold
- Average Induction, M28211 Homo sapiens GTP-binding protein (RAB4) mRNA [2, 4]: 2.0 fold
- Average Induction, M28225 Human JE gene encoding a monocyte secretory protein [= MCP-1] [2, 4]: 2.1 fold
- Average Induction, M29039 Human transactivator (jun-B) gene [2, 4]: 2.8 fold
- Average Induction, M30474 Human kidney gamma-glutamyl transpeptidase type II mRNA [2, 4]: 2.7 fold
- Average Induction, M31516 Human decay-accelerating factor mRNA [2, 4]: 1.7 fold
- Average Induction, M36820 Human cytokine (GRO-beta) mRNA [2, 4]: 2.1 fold
- Average Induction, M59465 Human tumor necrosis factor alpha inducible protein A20 mRNA [2, 4]: 1.4 fold
- Average Induction, M60278 Human heparin-binding EGF-like growth factor mRNA [2, 4]: 3.6 fold
- Average Induction, M60721 Human homeobox gene [2, 4]: 2.8 fold
- Average Induction, M69043 Homo sapiens MAD-3 mRNA encoding 1kB-like activity [2, 4]: 1.4 fold
- Average Induction, M92843 H.sapiens zinc finger transcriptional regulator mRNA [2, 4]: 2.0 fold
- Average Induction, S81439 EGR alpha=early growth response gene alpha [2, 4]: 1.8 fold
- Average Induction, S81914 IEX-1=radiation-inducible immediate-early gene [2, 4]: 1.3 fold
- Average Induction, U04636 Human cyclooxygenase-2 (hCox-2) gene [2, 4]: 1.3 fold
- Average Induction, U07802 Human Tis1 1d gene [2, 4]: 1.5 fold
- Average Induction, U08015 Human NF-ATc mRNA [2, 4]: 1.4 fold
- Average Induction, U12767/FEATURE Human mitogen induced nuclear orphan receptor (MINOR) [2, 4]: 4.9 fold
- Average Induction, U15932 Human dual-specificity protein phosphatase [2, 4]: 2.9 fold
- Average Induction, U25997 Homo sapiens stanniocalcin precursor (STC) mRNA [2, 4]: 1.6 fold
- Average Induction, U43142 Human vascular endothelial growth factor related protein VRP [2, 4]: 1.4 fold
- Average Induction, U59863 Human TRAF-interacting protein I-TRAF mRNA [2, 4]: 1.3 fold
- Average Induction, U75697 Human transcription regulator RPD3-2B mRNA [2, 4]: 2.7 fold
- Average Induction, U79259 Human clone 23945 mRNA [2, 4]: 1.5 fold
- Average Induction, U81607 Homo sapiens gravin mRNA [2, 4]: 1.4 fold
- Average Induction, W27545 32c4 Homo sapiens cDNA [2, 4]: 1.2 fold
- Average Induction, X51345 Human jun-B mRNA for JUN-B protein [2, 4]: 1.8 fold
- Average Induction, X63741 H.sapiens pilot mRNA [2, 4]: 1.9 fold
- Average Induction, X68277 H.sapiens CL 100 mRNA for protein tyrosine phosphatase [2, 4]: 2.1 fold
- Average Induction, X75918 H.sapiens mRNA for NOT [2, 4]: 2.3 fold
- Average Induction, X89066 H.sapiens mRNA for TRPC1 protein [2, 4]: 2.6 fold
- Average Induction, X94216 H.sapiens mRNA for VEGF-C protein [2, 4]: 1.4 fold
- Average Induction, Y00630 Human mRNA for Arg-Serpin (plasminogen activator-inhibitor 2, PAI-2) [2, 4]: 2.2 fold
- Average Induction, Z25821 H.sapiens gene for mitochondrial dodecenoyl-CoA delta-isomerase [2, 4]: 1.1 fold
- Average Induction, Z48054 H.sapiens mRNA for peroxisomal targeting signal 1 (SKL type) receptor [2, 4]: 2.0 fold
- Average Induction, L13740 Human TR3 orphan receptor mRNA ([2]; HUVEC-C, 90 min, genes represented in FIG. 2 A-C, first probe set): 4.8 fold
- Average Induction, L13740 Human TR3 orphan receptor mRNA ([2]; HUVEC-C, 90 min, genes represented in FIG. 2 A-C, second probe set): 4.7 fold
- Average Induction, A1186701 qe82d12.x1 Homo sapiens cDNA [2, 5]: 1.9 fold
- Average Induction, A1953789 wx69d10.x1 Homo sapiens cDNA [2, 5]: 1.3 fold
- Average Induction, AF024710 Homo sapiens vascular endothelial growth factor (VEGF) [2, 5]: 1.4 fold
- Average Induction, AL035297 H.sapiens gene from PAC 747L4 [2, 5]: 1.7 fold
- Average Induction, M22299 Human T-plastin polypeptide mRNA [2, 5]: 1.6 fold
- Average Induction, U35735 Human RACH1 (RACH1) mRNA [2, 5]: 1.8 fold
- Average Induction, U87460 Human putative endothelin receptor type B-like protein mRNA [2, 5]: 1.4 fold
- Average Induction, A1038821 ox96d03.x1 Homo sapiens cDNA [2, 6]: 1.2 fold
- Average Induction, AC004475 Homo sapiens chromosome 19, cosmid F23858 [2, 6]: 1.2 fold
- Average Induction, AL049354 Homo sapiens mRNA; cDNA DKFZp566E183 [2, 6]: 1.1 fold
- Average Induction, L38696 Homo sapiens autoantigen p542 mRNA [2, 6]: 1.0 fold
- Average Induction, U27655 Human RGP3 mRNA [2, 6]: 1.2 fold
- Average Induction, U53831 Homo sapiens interferon regulatory factor 7B [2, 6]: 1.1 fold
- Average Induction, U58334 Human Bcl2, p53 binding protein Bbp/53BP2 (BBP/53BP2) mRNA [2, 6]: 1.1 fold
- Average Induction, U65093 Human msg1-related gene 1 (mrg1) mRNA [2, 6]: 1.3 fold
- Average Induction, W26851 17b12 Homo sapiens cDNA [2, 6]: 1.2 fold
- Average Induction, Y13115 Homo sapiens mRNA for serine/threonine protein kinase SAK [2, 6]: 1.2 fold
- Average Induction, Z25821 H.sapiens gene for mitochondrial dodecenoyl-CoA delta-isomerase [2, 6]: 1.1 fold
- Average Induction, AB028069 Homo sapiens mRNA for activator of S phase Kinase [2, 7]: 2.0 fold
- Average Induction, D38537 Human mRNA for protoporphyrinogen oxidase [2, 7]: 1.3 fold
- Average Induction, M83667 Human NF-IL6-beta protein [2, 7]: 1.4 fold
- Average Induction, U78082 Human RNA polymerase transcriptional regulation mediator (h-MED6) mRNA [2, 7]: 1.9 fold
- Average Induction, U85267 Homo sapiens down syndrome candidate region 1 (DSCR1) gene [2, 7]: 1.6 fold
- Induction of the MCP-1 transcript (microarray, text) ([2]; endothelial cells, 90 minutes): only induced by the PAR1 agonist
- MCP-1 induction, time course [3]: similarly induced
